The target in one data set is T1, PfDHODH (Plasmodium falciparum, UniProt Q08210).
T1 sequence (Q08210 24-569): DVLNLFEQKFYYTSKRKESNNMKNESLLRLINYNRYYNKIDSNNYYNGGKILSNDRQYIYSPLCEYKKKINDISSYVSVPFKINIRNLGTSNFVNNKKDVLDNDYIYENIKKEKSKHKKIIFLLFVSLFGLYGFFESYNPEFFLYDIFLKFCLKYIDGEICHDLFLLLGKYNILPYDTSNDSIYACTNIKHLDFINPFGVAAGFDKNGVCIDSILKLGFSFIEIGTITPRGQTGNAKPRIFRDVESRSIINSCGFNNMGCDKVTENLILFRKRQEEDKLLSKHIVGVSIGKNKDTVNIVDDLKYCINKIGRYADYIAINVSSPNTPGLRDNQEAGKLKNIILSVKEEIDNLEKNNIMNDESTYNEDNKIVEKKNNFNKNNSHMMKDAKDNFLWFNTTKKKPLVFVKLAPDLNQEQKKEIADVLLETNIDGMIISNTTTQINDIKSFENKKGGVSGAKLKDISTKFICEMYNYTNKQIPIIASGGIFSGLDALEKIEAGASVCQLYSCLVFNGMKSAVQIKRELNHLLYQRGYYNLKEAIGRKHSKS
The experiment in a line: DHODH inhibition, Plasmodium falciparum. The data set is classed as biochemical.

Data set [1] has as its system B16-F10 mouse melanoma tumor cells. The experiment in a line: B16-F10 syngeneic mouse melanoma model. The data set is classed as in vivo. Conditions: athymic mice, 35 mg/kg IP 3 × weekly (M, W, F) for two weeks.
Data set [2] is described as follows: Dose-finding study in athymic mice. Conditions: 35 mg/kg three times weekly for 4 weeks.

SMILES strings stand for the structures. “Also recorded” adds a separate entry of the source.

Turning to `Nc1nc2c(c(Nc3ccccc3)n1)-c1ccccc1C2` [Compound 1, N^4-Phenyl-9H-indeno[2,1-d]pyrimidine-2,4-diamine], the IC50 on PfDHODH is ≥ 200 µM.

Regarding `Nc1nc2c(c(Nc3cccc(F)c3)n1)-c1ccccc1C2` [Compound 4, N^4-(3-Fluorophenyl)-9H-indeno[2,1-d]pyrimidine-2,4-diamine], the IC50 against PfDHODH was ≥ 200 µM. With `Nc1nc2c(c(Nc3ccc(Cl)cc3)n1)-c1ccccc1C2` [Compound 7, N^4-(4-Chlorophenyl)-9H-indeno[2,1-d]pyrimidine-2,4-diamine], the “growth rate of primary B16-F10 tumor” value in data set [1] is on record as “equipotent with the standard 21; also recorded: decreased tumor growth rate”. Also, in data set [2], the “loss in weight in dose-finding study” value is reported as “no significant loss in weight” and the “toxicity in dose-finding study” value is reported as “no apparent toxicity”. The IC50 against PfDHODH is ≥ 200 µM. On to `Nc1nc2c(c(Nc3cccc(Br)c3)n1)-c1ccccc1C2` [Compound 8, N^4-(3-Bromophenyl)-9H-indeno[2,1-d]pyrimidine-2,4-diamine], for which the IC50 at PfDHODH is ≥ 200 µM.

Regarding `COc1cccc(Nc2nc(N)nc3c2-c2ccccc2C3)c1` [Compound 11, N^4-(3-Methoxyphenyl)-9H-indeno[2,1-d]pyrimidine-2,4-diamine], the IC50 against PfDHODH is ≥ 200 µM. Consider `Nc1nc2c(c(Nc3ccc(Cl)cc3F)n1)-c1ccccc1C2` [Compound 13, N^4-(4-Chloro-2-fluorophenyl)-9H-indeno[2,1-d]pyrimidine-2,4-diamine], for which the IC50 at PfDHODH was ≥ 200 µM.
